Experimental data taken from article doi:10.1101/2022.09.08.507076v2 (biorxiv, 2022).

Assays:
Assay type in all cases: biochemical
CYP2C9 = CYP2C9 (Homo sapiens, UniProt P11712); assay: recombinant CYP inhibition, fluorescence
CYP2D6 = CYP2D6 (Homo sapiens, UniProt P10635); assay: recombinant CYP inhibition, fluorescence
CYP2C19 = CYP2C19 (Homo sapiens, UniProt P33261); assay: recombinant CYP inhibition, fluorescence
human topoisomerase IIα = human topoisomerase IIα (Homo sapiens, UniProt P11388); assay: human topoisomerase IIα decatenation assay
CYP1A2 = biological target: T1, CYP1A2 (Homo sapiens, UniProt P05177); assay: recombinant CYP inhibition, fluorescence
T1 sequence (P05177 2-516): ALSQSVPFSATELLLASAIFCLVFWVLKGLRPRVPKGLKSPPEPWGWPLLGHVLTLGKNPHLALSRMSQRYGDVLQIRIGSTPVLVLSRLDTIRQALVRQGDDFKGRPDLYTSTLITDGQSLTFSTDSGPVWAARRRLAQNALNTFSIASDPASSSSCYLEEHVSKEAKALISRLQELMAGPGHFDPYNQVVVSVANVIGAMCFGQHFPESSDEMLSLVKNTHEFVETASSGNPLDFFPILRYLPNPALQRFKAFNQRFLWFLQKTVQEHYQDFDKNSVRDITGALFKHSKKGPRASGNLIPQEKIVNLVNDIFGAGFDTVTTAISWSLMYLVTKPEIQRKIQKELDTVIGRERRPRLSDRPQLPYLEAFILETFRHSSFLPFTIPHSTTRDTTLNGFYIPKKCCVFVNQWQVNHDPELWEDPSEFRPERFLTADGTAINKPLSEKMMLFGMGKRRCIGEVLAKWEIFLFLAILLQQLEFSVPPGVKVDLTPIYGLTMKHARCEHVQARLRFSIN

CYP3A4 = CYP3A4 (Homo sapiens, UniProt P08684); assay: recombinant CYP inhibition, fluorescence
Chain of CYP3A4 (P08684 2-503): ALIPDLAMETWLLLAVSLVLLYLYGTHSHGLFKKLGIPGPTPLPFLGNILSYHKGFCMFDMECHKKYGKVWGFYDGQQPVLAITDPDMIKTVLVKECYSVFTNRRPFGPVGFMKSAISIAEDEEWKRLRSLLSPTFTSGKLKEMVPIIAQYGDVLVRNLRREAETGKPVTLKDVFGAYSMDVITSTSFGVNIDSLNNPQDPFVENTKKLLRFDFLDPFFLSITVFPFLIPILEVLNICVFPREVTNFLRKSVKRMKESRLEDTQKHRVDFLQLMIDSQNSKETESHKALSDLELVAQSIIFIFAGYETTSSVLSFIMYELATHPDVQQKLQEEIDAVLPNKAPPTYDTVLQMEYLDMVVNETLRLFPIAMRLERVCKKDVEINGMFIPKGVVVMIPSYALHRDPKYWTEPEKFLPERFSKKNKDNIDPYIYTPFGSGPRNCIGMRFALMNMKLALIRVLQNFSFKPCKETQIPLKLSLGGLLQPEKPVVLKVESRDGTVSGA

Chain of CYP2D6 (P10635 whole entry): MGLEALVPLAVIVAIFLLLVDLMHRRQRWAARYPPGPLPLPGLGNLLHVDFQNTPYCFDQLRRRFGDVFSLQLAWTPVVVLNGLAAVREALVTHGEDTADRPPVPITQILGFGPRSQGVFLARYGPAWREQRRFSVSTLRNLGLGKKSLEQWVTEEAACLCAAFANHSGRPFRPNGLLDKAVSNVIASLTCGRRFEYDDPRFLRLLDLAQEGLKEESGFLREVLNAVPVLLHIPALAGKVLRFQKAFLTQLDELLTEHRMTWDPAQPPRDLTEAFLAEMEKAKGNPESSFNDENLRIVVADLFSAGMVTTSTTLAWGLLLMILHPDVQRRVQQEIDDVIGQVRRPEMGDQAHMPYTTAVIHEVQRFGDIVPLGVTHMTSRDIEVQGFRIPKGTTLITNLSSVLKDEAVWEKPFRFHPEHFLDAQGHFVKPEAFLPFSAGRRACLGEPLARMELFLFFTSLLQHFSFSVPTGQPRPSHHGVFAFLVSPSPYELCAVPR
Chain of CYP2C19 (P33261 whole entry): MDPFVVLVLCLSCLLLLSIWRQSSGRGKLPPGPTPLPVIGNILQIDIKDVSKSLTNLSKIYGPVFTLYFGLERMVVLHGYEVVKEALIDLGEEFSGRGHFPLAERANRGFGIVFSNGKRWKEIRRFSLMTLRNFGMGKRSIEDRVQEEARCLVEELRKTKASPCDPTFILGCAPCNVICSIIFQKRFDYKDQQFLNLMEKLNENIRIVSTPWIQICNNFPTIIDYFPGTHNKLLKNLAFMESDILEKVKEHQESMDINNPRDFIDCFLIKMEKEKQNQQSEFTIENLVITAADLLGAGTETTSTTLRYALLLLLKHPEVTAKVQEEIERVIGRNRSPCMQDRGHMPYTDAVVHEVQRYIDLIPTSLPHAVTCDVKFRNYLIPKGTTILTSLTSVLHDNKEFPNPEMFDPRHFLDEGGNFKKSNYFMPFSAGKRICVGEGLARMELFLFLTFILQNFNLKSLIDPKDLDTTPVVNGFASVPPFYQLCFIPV
Chain of CYP2C9 (P11712 whole entry): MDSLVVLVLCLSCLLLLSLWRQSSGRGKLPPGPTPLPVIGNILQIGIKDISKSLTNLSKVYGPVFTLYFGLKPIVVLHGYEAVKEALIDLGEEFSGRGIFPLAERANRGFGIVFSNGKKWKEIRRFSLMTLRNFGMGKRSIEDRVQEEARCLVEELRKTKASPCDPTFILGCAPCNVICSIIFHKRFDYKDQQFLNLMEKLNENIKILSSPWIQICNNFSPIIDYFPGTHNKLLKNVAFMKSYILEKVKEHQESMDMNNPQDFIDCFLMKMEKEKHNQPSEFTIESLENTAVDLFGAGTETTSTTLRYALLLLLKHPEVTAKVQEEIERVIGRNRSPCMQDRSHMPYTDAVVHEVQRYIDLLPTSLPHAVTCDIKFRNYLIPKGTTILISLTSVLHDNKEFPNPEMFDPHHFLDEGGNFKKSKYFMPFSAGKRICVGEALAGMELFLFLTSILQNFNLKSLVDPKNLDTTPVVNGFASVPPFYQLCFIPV
Chain of human topoisomerase IIα (P11388 whole entry): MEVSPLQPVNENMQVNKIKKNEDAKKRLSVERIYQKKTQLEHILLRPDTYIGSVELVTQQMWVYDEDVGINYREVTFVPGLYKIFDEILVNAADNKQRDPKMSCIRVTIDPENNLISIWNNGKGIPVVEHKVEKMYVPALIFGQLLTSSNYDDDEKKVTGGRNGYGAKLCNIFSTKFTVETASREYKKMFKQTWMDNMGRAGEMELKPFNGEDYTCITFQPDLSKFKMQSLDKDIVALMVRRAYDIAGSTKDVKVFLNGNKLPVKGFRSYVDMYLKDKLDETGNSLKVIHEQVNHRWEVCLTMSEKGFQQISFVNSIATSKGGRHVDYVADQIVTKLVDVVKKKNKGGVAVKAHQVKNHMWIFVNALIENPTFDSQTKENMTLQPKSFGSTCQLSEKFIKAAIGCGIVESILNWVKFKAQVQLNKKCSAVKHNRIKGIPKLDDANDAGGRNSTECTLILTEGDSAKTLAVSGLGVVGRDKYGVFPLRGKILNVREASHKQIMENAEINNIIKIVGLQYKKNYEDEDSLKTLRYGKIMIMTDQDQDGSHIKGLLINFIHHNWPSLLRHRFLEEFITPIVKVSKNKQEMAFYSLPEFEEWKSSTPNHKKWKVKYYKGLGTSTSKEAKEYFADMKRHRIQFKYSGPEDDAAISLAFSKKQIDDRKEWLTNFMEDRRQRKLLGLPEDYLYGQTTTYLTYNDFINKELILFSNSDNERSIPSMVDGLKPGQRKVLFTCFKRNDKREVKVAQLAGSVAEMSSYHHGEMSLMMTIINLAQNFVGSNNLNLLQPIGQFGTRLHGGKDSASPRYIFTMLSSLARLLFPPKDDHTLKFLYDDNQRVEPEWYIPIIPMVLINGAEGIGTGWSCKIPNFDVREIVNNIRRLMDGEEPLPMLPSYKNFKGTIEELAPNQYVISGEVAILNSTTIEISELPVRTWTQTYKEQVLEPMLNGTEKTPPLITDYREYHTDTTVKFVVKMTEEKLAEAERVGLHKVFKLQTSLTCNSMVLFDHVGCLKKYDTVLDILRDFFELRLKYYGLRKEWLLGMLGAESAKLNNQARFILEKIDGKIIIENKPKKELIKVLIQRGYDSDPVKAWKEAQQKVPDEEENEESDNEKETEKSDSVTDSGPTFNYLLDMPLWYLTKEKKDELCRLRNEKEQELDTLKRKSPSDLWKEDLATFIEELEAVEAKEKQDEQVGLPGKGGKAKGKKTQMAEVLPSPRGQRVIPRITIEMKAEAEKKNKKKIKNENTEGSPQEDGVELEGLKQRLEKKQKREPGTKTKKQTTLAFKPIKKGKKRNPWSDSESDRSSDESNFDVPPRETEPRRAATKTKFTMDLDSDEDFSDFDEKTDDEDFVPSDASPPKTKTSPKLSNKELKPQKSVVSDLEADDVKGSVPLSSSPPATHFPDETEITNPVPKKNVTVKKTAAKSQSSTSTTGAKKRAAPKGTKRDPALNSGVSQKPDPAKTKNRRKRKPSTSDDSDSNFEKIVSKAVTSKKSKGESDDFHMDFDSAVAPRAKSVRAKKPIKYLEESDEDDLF

IC50 (CYP2C9) [µM]	IC50 (CYP2D6) [µM]	IC50 (CYP2C19) [µM]	IC50 (human topoisomerase IIα) [µM]	IC50 (CYP1A2) [µM]	IC50 (CYP3A4) [µM]	Compound
> 10	> 10	> 10	> 959	> 10	> 10	CCNC(=O)Nc1nc2c(F)c(-c3cnc(N4CCC(C(=O)O)CC4)nc3)cc(-c3ccccn3)c2s1 [RBx 10080758]
> 10	> 10	> 10	> 993	> 10	> 10	CCNC(=O)Nc1nc2c(F)c(-c3ccc(COP(=O)(O)O)nc3)cc(-c3ccccn3)c2s1 [RBx 10115912]
